Source: paper PMC4992173, “Divergent synthesis and identification of the cellular targets of deoxyelephantopins” (Nature Communications, 2016)

Tested on: Caco-2 cells
Assay: In situ global proteomics profiling of Caco-2 cells (LC-MS/MS, LFQ)
Assay type: cell-based, human
Conditions: LFQ
Experimental: Figure 7 Identification of PPARγ as target of deoxyelephantopin and screening of DEP derivatives as PPARγ antagonists. (a) Quantification of endogenous PPARγ enriched from Caco-2 cells using 10 μM 24c following in situ treatment with DEP (20 μM) or DMSO (normalized LFQ values±s.d. are shown; n=6). (b) Changes in expression levels of five PPARγ-dependent proteins following 24 h treatment of Caco-2 cells with DMSO, rosiglitazone (10 μM), T0070907 (50 μM) or DEP (20 μM; LFQ ratios±s.d. are shown; n=3). **P<0.005 and ***P<0.0005 by two-sided Student's t-test. (c) Gel-based competitive screening of DEP and analogues as PPARγ antagonists against recombinant human enzyme (top). hPPARγ was treated with each compound (20 μM) for 1 h followed by treatment with 24c-Cy3 (10 μM) as probe. Quantification of fluorescence intensity in the competitive screening for PPARγ antagonists (bottom; values±s.d. are shown; n=3).
Caco-2 cells were treated with DMSO, PPARγ agonist rosiglitazone, antagonist T0070907 or DEP for 24 h, the cells were collected and the proteomes were comparatively analysed by LC–MS/MS. […] Furthermore, the list of 43 dysregulated proteins was analysed and classified using the GOrilla pathway analysis tool (Supplementary Fig. 15). […]
In situ global proteomics profiling using LC-MS/MS. Caco- ’ cells/mL) in a 6-well plate, allowed to grow to confluence and to differentiate for 28 days. The wells were washed one time with PBS and treated with either DMSO, 10 µM rosiglitazone, 50 µM T0070907 or 20 µM DEP for 24 hours. Cells were washed two times with PBS and lysates were prepared. Samples (30 µg) were denatured with 6 M urea in 50 mM NH4HCO3, reduced […]
dark. Samples were diluted to 2 M urea with 50 mM NH4HCO3, and digested with trypsin ([…] for 12 hours at 37 °C. Samples were acidified to a final concentration of 5% acetic acid, desalted over a self-packed C18 spin column and […]
dried. […]
LC-MS/MS analysis. Peptides were resuspended in water with 0.1% formic acid (FA) and analyzed using Proxeon EASY-nLC 1000 nano-UHPLC coupled to QExactive Plus Quadrupole-Orbitrap mass spectrometer (Thermo Scientific). The chromatography column […]
H2O (Buffer A) and 0.1% FA in MeCN (Buffer B). Peptides were eluted into the mass spectrometer at a flow rate of 300 nL/min. over a 240 min. linear gradient (3-35% Buffer B) at 50 °C. Data was acquired in data-dependent mode (top- N = ’ […]
and isotope exclusion was enabled.
MaxQuant analysis. The MS data was analyzed with MaxQuant (V1.5.2.8) and searched against the human proteome (Uniprot, 89,649 entries) and a common list of contaminants (included in MaxQuant). The first peptide search tolerance was set to 20 ppm, 10 ppm was used for the main peptide search and fragment mass tolerance was set to 0.02 Da. The false discovery rate for peptides, proteins and sites identification was set to 1%. The minimum peptide length was set to 6 amino acids and peptide re-quantification, label-free quantification (MaxLFQ) and “ ” were enabled. The minimal number of peptides per protein was set to two. Oxidized methionines and N-terminal acetylation were searched as variable modifications and carbamidomethylation of cysteines was searched as a fixed modification. For SILAC experiments 13C6 L-lysine and 13C6 15N4 L-arginine were set as heavy isotope labels and 12C6 L-lysine and 12C6 14N4 L-arginine as light isotope labels.
19 d k g h ARγ. 19a was covalently docked to the crystal structure of human γ ZU 190 using the GOLD suite (V5.3, CCDC). The default GOLD fitness function was used to determine the best binding configuration. The distance for hydrogen bonding was set to 3 Å.
IAA competition of 23c, 24c and DEP h ARγ. γ
(500 ng in 9 µL PBS) was treated with either 100 µM DEP, 23c, 24c or DMSO (1 µL of 10x stock in DMSO) for one hour. Samples were denatured with 6 M urea in 50 mM NH4HCO3, […]
in the dark. Samples were diluted to 2 M urea with 50 mM NH4HCO3, and digested with trypsin […]

In the case of `CN(CCOc1ccc(CC2SC(=O)NC2=O)cc1)c1ccccn1` (centres unmarked) [Rosiglitazone, rosiglitazone], the “Log2 10 µM Rosiglitazone/DMSO” value (protein ALDH3B1, 24 h) is reported as -0.32, the “Log2 10 µM Rosiglitazone/DMSO” value (protein ARHGAP17, 24 h) is reported as 0.39 and the “Log2 10 µM Rosiglitazone/DMSO” value (protein ARMCX3, 24 h) is reported as -0.36. For the same compound, the “Log2 10 µM Rosiglitazone/DMSO” value (protein COL4A3BP, 24 h) was -0.06, the “Log2 10 µM Rosiglitazone/DMSO” value (protein CROT, 24 h) was 0.034 and the “Log2 10 µM Rosiglitazone/DMSO” value (protein CTBP2, 24 h) was 0.36. The “Log2 10 µM Rosiglitazone/DMSO” value (protein DDX21, 24 h) was 0.15, the “Log2 10 µM Rosiglitazone/DMSO” value (protein FNTA, 24 h) was -0.12 and the “Log2 10 µM Rosiglitazone/DMSO” value (protein GID8, 24 h) was 0.46. The “Log2 10 µM Rosiglitazone/DMSO” value (protein GIPC2, 24 h) was 0.0144, the “Log2 10 µM Rosiglitazone/DMSO” value (protein GIT2, 24 h) was -0.38 and the “Log2 10 µM Rosiglitazone/DMSO” value (protein GSTA1, 24 h) was 0.21. For the same compound, the “Log2 10 µM Rosiglitazone/DMSO” value (protein GSTA2, 24 h) was 0.20, the “Log2 10 µM Rosiglitazone/DMSO” value (protein GSTM3, 24 h) was 0.30 and the “Log2 10 µM Rosiglitazone/DMSO” value (protein HIGD1A, 24 h) was 0.43. The “Log2 10 µM Rosiglitazone/DMSO” value (protein IREB2, 24 h) was 0.26, the “Log2 10 µM Rosiglitazone/DMSO” value (protein ITGB4, 24 h) was 0.08 and the “Log2 10 µM Rosiglitazone/DMSO” value (protein LDHD, 24 h) was -0.20. The “Log2 10 µM Rosiglitazone/DMSO” value (protein LDLR, 24 h) was 0.49, the “Log2 10 µM Rosiglitazone/DMSO” value (protein LIPA, 24 h) was 0.034 and the “Log2 10 µM Rosiglitazone/DMSO” value (protein MARCH5, 24 h) was 0.40. For the same compound, the “Log2 10 µM Rosiglitazone/DMSO” value (protein MGMT, 24 h) was -0.17, the “Log2 10 µM Rosiglitazone/DMSO” value (protein MYO15B, 24 h) was 0.08 and the “Log2 10 µM Rosiglitazone/DMSO” value (protein NOP9, 24 h) was 0.07. The “Log2 10 µM Rosiglitazone/DMSO” value (protein OAS1, 24 h) was 0.0144, the “Log2 10 µM Rosiglitazone/DMSO” value (protein OGDHL, 24 h) was 0.10 and the “Log2 10 µM Rosiglitazone/DMSO” value (protein PANK4, 24 h) was -0.34. For the same compound, the “Log2 10 µM Rosiglitazone/DMSO” value (protein PHPT1, 24 h) was -0.36, the “Log2 10 µM Rosiglitazone/DMSO” value (protein PSIP1, 24 h) was 0.49 and the “Log2 10 µM Rosiglitazone/DMSO” value (protein RAB5B, 24 h) was 0.49. The “Log2 10 µM Rosiglitazone/DMSO” value (protein RBP4, 24 h) was 0.20, the “Log2 10 µM Rosiglitazone/DMSO” value (protein RRS1, 24 h) was 0.50 and the “Log2 10 µM Rosiglitazone/DMSO” value (protein SAMHD1, 24 h) was -0.43. For the same compound, the “Log2 10 µM Rosiglitazone/DMSO” value (protein SCAMP3, 24 h) was 0.45, the “Log2 10 µM Rosiglitazone/DMSO” value (protein SETDB1, 24 h) was 0.08 and the “Log2 10 µM Rosiglitazone/DMSO” value (protein SLC26A3, 24 h) was 0.10. For the same compound, the “Log2 10 µM Rosiglitazone/DMSO” value (protein SLC39A14, 24 h) was -0.49, the “Log2 10 µM Rosiglitazone/DMSO” value (protein STK4, 24 h) was 0.36 and the “Log2 10 µM Rosiglitazone/DMSO” value (protein SURF6, 24 h) was 0.26. For the same compound, the “Log2 10 µM Rosiglitazone/DMSO” value (protein TGOLN2, 24 h) was 0.28, the “Log2 10 µM Rosiglitazone/DMSO” value (protein TPD52L1, 24 h) was -0.45 and the “Log2 10 µM Rosiglitazone/DMSO” value (protein TTR, 24 h) was 0.46. The “Log2 10 µM Rosiglitazone/DMSO” value (protein VPS52, 24 h) was 0.42.
`O=C(Nc1ccncc1)c1cc([N+](=O)[O-])ccc1Cl` [T0070907] was tested, and the “Log2 50 µM T0070907/DMSO” value (protein ALDH3B1, 24 h) was -0.79, the “Log2 50 µM T0070907/DMSO” value (protein ARHGAP17, 24 h) was -0.81 and the “Log2 50 µM T0070907/DMSO” value (protein ARMCX3, 24 h) was -0.71. The “Log2 50 µM T0070907/DMSO” value (protein COL4A3BP, 24 h) was -0.76, the “Log2 50 µM T0070907/DMSO” value (protein CROT, 24 h) was -0.85 and the “Log2 50 µM T0070907/DMSO” value (protein CTBP2, 24 h) was 0.83. For the same compound, the “Log2 50 µM T0070907/DMSO” value (protein DDX21, 24 h) was 0.92, the “Log2 50 µM T0070907/DMSO” value (protein FNTA, 24 h) was -0.97 and the “Log2 50 µM T0070907/DMSO” value (protein GID8, 24 h) was 0.60. For the same compound, the “Log2 50 µM T0070907/DMSO” value (protein GIPC2, 24 h) was -0.69, the “Log2 50 µM T0070907/DMSO” value (protein GIT2, 24 h) was -0.89 and the “Log2 50 µM T0070907/DMSO” value (protein GSTA1, 24 h) was -0.76. The “Log2 50 µM T0070907/DMSO” value (protein GSTA2, 24 h) was -0.80, the “Log2 50 µM T0070907/DMSO” value (protein GSTM3, 24 h) was -0.71 and the “Log2 50 µM T0070907/DMSO” value (protein HIGD1A, 24 h) was 0.70. The “Log2 50 µM T0070907/DMSO” value (protein IREB2, 24 h) was 0.96, the “Log2 50 µM T0070907/DMSO” value (protein ITGB4, 24 h) was 1.36 and the “Log2 50 µM T0070907/DMSO” value (protein LDHD, 24 h) was -0.67. For the same compound, the “Log2 50 µM T0070907/DMSO” value (protein LDLR, 24 h) was 1.99, the “Log2 50 µM T0070907/DMSO” value (protein LIPA, 24 h) was -0.85 and the “Log2 50 µM T0070907/DMSO” value (protein MARCH5, 24 h) was 1.21. For the same compound, the “Log2 50 µM T0070907/DMSO” value (protein MGMT, 24 h) was -0.69, the “Log2 50 µM T0070907/DMSO” value (protein MYO15B, 24 h) was -0.74 and the “Log2 50 µM T0070907/DMSO” value (protein NOP9, 24 h) was 1.10. For the same compound, the “Log2 50 µM T0070907/DMSO” value (protein OAS1, 24 h) was 0.92, the “Log2 50 µM T0070907/DMSO” value (protein OGDHL, 24 h) was -1.02 and the “Log2 50 µM T0070907/DMSO” value (protein PANK4, 24 h) was -0.81. The “Log2 50 µM T0070907/DMSO” value (protein PHPT1, 24 h) was -1.25, the “Log2 50 µM T0070907/DMSO” value (protein PSIP1, 24 h) was 0.60 and the “Log2 50 µM T0070907/DMSO” value (protein RAB5B, 24 h) was 0.62. The “Log2 50 µM T0070907/DMSO” value (protein RBP4, 24 h) was -0.37, the “Log2 50 µM T0070907/DMSO” value (protein RRS1, 24 h) was 0.77 and the “Log2 50 µM T0070907/DMSO” value (protein SAMHD1, 24 h) was -0.81. The “Log2 50 µM T0070907/DMSO” value (protein SCAMP3, 24 h) was 0.64, the “Log2 50 µM T0070907/DMSO” value (protein SETDB1, 24 h) was 0.63 and the “Log2 50 µM T0070907/DMSO” value (protein SLC26A3, 24 h) was -1.02. For the same compound, the “Log2 50 µM T0070907/DMSO” value (protein SLC39A14, 24 h) was -0.69, the “Log2 50 µM T0070907/DMSO” value (protein STK4, 24 h) was -0.81 and the “Log2 50 µM T0070907/DMSO” value (protein SURF6, 24 h) was 0.78. For the same compound, the “Log2 50 µM T0070907/DMSO” value (protein TGOLN2, 24 h) was 0.93, the “Log2 50 µM T0070907/DMSO” value (protein TPD52L1, 24 h) was -1.09 and the “Log2 50 µM T0070907/DMSO” value (protein TTR, 24 h) was -1.25. For the same compound, the “Log2 50 µM T0070907/DMSO” value (protein VPS52, 24 h) was 0.77.
